Data: patent US12371454B2, “Cyclic peptide compound having Kras inhibitory action” (priority 2019, dated 2025)
Positions of bridges follow the written chain, without caps; N, C: chain ends. Non-standard residues stand in square brackets, D forms with d. Residues, ends and D or L forms follow the SMILES beside them. *: point of attachment. NMeAbu(3,3-F2-piperidino) = CN[C@@H](CCN1CCCC(F)(F)C1)C(=O)O; hPhe(3-Cl-4-CF3) = N[C@@H](CCc1ccc(C(F)(F)F)c(Cl)c1)C(=O)O; NMePhe(4-CF3) = CN[C@@H](Cc1ccc(C(F)(F)F)cc1)C(=O)O; 3Oxa8azabicyclo(3.2.1)octane = C1CC2COCC1N2*; NMePhe(2-Cl) = CN[C@@H](Cc1ccccc1Cl)C(=O)O; hPhe(4-Cl) = N[C@@H](CCc1ccc(Cl)cc1)C(=O)O; NMeAla(cPent) = CN[C@@H](CC1CCCC1)C(=O)O; NMeGly(cPent) = CN[C@H](C(=O)O)C1CCCC1; NMeCha = CN[C@@H](CC1CCCCC1)C(=O)O; NMeChg = CN[C@H](C(=O)O)C1CCCCC1; NMeT = CN[C@H](C(=O)O)[C@@H](C)O; NMeD = CN[C@@H](CC(=O)O)C(=O)O; NMeL = CN[C@@H](CC(C)C)C(=O)O; NMeV = CN[C@H](C(=O)O)C(C)C; NMeAbu = CC[C@H](NC)C(=O)O; NMeS = CN[C@@H](CO)C(=O)O; Morpholide = C1CN(*)CCO1; NMeA = CN[C@@H](C)C(=O)O; Piperidide = C1CCN(*)CC1; Pyrrolidide = C1CCN(*)C1; Ac5c = NC1(C(=O)O)CCCC1; Aze = O=C(O)[C@@H]1CCN1; Sar = CNCC(=O)O; Propyl = CCC*

Key:
[1] = molecular target: T1, Kras and SOS1 (biotin-tagged human Kras loaded with GDP, His-tagged human SOS1) (Homo sapiens, UniProt P01116, G12D); experiment: Protein-protein interaction inhibition between Kras and SOS1 (KrasGl2D-SOS PPI) using AlphaScreen; assay type: binding; conditions: AlphaScreen; biotin-tagged human Kras loaded with GDP, His-tagged human SOS1; read-out: KRAS G12D-SOS PPI IC50
T1 construct: made in house; host or cells: E. coli (stated for Kras only)
T1 sequence (P01116 1-188 isoform P01116-2 G12D): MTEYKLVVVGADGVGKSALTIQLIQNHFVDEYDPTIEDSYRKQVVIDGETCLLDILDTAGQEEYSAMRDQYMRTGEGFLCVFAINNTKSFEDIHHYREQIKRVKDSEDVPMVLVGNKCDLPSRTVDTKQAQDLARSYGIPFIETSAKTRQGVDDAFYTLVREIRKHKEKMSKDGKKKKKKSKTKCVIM
How it was run: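 Energy transfer from nickel-chelate donor beads bound to His-SOS1 to streptavidin acceptor beads bound to biotin-Kras, expressed in E. coli and loaded with GDP after purification, was monitored. Donors were excited at 680 nm; singlet oxygen reaching acceptors gave emission read at 520-620 nm.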

[2] = tested on: Human pancreatic cancer cell line AsPC-1; experiment: Measurement of AsPC-1 cell growth inhibition (AsPC-1 CGI); assay type: cell-based; conditions: 96 h
How it was run: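 AsPC-1 cells in 15% FBS RPMI-1640 were exposed to test compound for 96 hours at 37° C, with CellTiter-Glo as endpoint.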

| Compound | IC50 [1] [nM] | IC50 [2] [nM] |
| --- | --- | --- |
| CC[C@H](C)[C@@H]1NC(=O)[C@H](CC(C)C)N(C)C(=O)C[C@@H](C(=O)N(C)C)N(C)C(=O)[C@H](C2CCCC2)N(C)C(=O)C2(CCCC2)NC(=O)[C@H](CCN2CCCC(F)(F)C2)N(C)C(=O)[C@H](CCc2ccc(C(F)(F)F)c(Cl)c2)NC(=O)CN(C)C(=O)[C@H](CC2CCCCC2)N(C)C(=O)[C@@H]2CCN2C(=O)[C@H](C)N(C)C1=O [Compound 910] ([NMeL]I[NMeA][Aze][NMeCha][Sar][hPhe(3-Cl-4-CF3)][NMeAbu(3,3-F2-piperidino)][Ac5c][NMeGly(cPent)][NMeD]-NMe2; lactam N-11) | 4.3 | 100 to 500 |
| CCCOC[C@H]1C(=O)N(C)CC(=O)N[C@@H](CCc2ccc(C(F)(F)F)c(Cl)c2)C(=O)N2CCC[C@H]2C(=O)NC2(CCCC2)C(=O)N(C)[C@@H](C2CCCCC2)C(=O)N(C)[C@H](C(=O)N2C3CCC2COC3)CC(=O)N(C)[C@@H](CC(C)C)C(=O)N[C@@H]([C@@H](C)CC)C(=O)N(C)CC(=O)N(C)CC(=O)N1C [Compound 1900] ([NMeL]I[Sar][Sar][NMeS](Propyl)[Sar][hPhe(3-Cl-4-CF3)]P[Ac5c][NMeChg][NMeD]-{3Oxa8azabicyclo(3.2.1)octane}; lactam N-11) | 0.99 | 100 to 500 |
| CC[C@H](C)[C@@H]1NC(=O)[C@H](CC(C)C)N(C)C(=O)C[C@@H](C(=O)N2CCCCC2)N(C)C(=O)[C@H](C(C)C)N(C)C(=O)C2(CCCC2)NC(=O)[C@@H]2CCCN2C(=O)[C@H](CCc2ccc(C(F)(F)F)c(Cl)c2)NC(=O)CN(C)C(=O)[C@H](C2CCCC2)N(C)C(=O)[C@@H]2CCN2C(=O)[C@H](C)N(C)C1=O [Compound 1825] ([NMeL]I[NMeA][Aze][NMeGly(cPent)][Sar][hPhe(3-Cl-4-CF3)]P[Ac5c][NMeV][NMeD]-Piperidide; lactam N-11) | 3.4 | 100 to 500 |
| CC[C@H](C)[C@@H]1NC(=O)[C@H](CC(C)C)N(C)C(=O)C[C@@H](C(=O)N2CCCCC2)N(C)C(=O)[C@H](C2CCCCC2)N(C)C(=O)C2(CCCC2)NC(=O)[C@@H]2CCCN2C(=O)[C@H](CCc2ccc(C(F)(F)F)c(Cl)c2)NC(=O)CN(C)C(=O)[C@H]([C@@H](C)OC)N(C)C(=O)CN(C)C(=O)CN(C)C1=O [Compound 1072] ([NMeL]I[Sar][Sar][NMeT](Me)[Sar][hPhe(3-Cl-4-CF3)]P[Ac5c][NMeChg][NMeD]-Piperidide; lactam N-11) | 1.2 | 100 to 500 |
| CC[C@H](C)[C@@H]1NC(=O)[C@H](COC)N(C)C(=O)C[C@@H](C(=O)N2CCCCC2)N(C)C(=O)[C@H](C2CCCCC2)N(C)C(=O)C2(CCCC2)NC(=O)[C@@H]2CCCN2C(=O)[C@H](CCc2ccc(C(F)(F)F)c(Cl)c2)NC(=O)CN(C)C(=O)[C@H](CC2CCCCC2)N(C)C(=O)CN(C)C(=O)CN(C)C1=O [Compound 1037] ([NMeS](Me)I[Sar][Sar][NMeCha][Sar][hPhe(3-Cl-4-CF3)]P[Ac5c][NMeChg][NMeD]-Piperidide; lactam N-11) | 0.66 | 50 to 100 |
| CC[C@H](C)[C@@H]1NC(=O)[C@H](CC(C)C)N(C)C(=O)C[C@@H](C(=O)N2CCCC2)N(C)C(=O)[C@H](C2CCCCC2)N(C)C(=O)C2(CCCC2)NC(=O)[C@@H]2CCCN2C(=O)[C@H](CCc2ccc(C(F)(F)F)c(Cl)c2)NC(=O)CN(C)C(=O)[C@H](CC2CCCC2)N(C)C(=O)CN(C)C(=O)CN(C)C1=O [Compound 1969] ([NMeL]I[Sar][Sar][NMeAla(cPent)][Sar][hPhe(3-Cl-4-CF3)]P[Ac5c][NMeChg][NMeD]-Pyrrolidide; lactam N-11) | 0.61 | 50 to 100 |
| CC[C@H](C)[C@@H]1NC(=O)[C@H](CC(C)C)N(C)C(=O)C[C@@H](C(=O)N2CCCCC2)N(C)C(=O)[C@H](C(C)C)N(C)C(=O)C2(CCCC2)NC(=O)[C@@H]2CCCN2C(=O)[C@H](CCc2ccc(C(F)(F)F)c(Cl)c2)NC(=O)CN(C)C(=O)[C@H](Cc2ccccc2Cl)N(C)C(=O)CN(C)C(=O)CN(C)C1=O [Compound 1636] ([NMeL]I[Sar][Sar][NMePhe(2-Cl)][Sar][hPhe(3-Cl-4-CF3)]P[Ac5c][NMeV][NMeD]-Piperidide; lactam N-11) | 11 | 100 to 500 |
| CC[C@H](C)[C@@H]1NC(=O)[C@H](CC(C)C)N(C)C(=O)C[C@@H](C(=O)N2C3CCC2COC3)N(C)C(=O)[C@H](C2CCCCC2)N(C)C(=O)C2(CCCC2)NC(=O)[C@@H]2CCCN2C(=O)[C@H](CCc2ccc(Cl)cc2)NC(=O)CN(C)C(=O)[C@H](CC2CCCCC2)N(C)C(=O)CN(C)C(=O)CN(C)C1=O [Compound 1950] ([NMeL]I[Sar][Sar][NMeCha][Sar][hPhe(4-Cl)]P[Ac5c][NMeChg][NMeD]-{3Oxa8azabicyclo(3.2.1)octane}; lactam N-11) | 2.8 | 20 to 50 |
| CC[C@H](C)[C@@H]1NC(=O)[C@H](CC)N(C)C(=O)C[C@@H](C(=O)N2CCOCC2)N(C)C(=O)[C@H](C2CCCCC2)N(C)C(=O)C2(CCCC2)NC(=O)[C@@H]2CCCN2C(=O)[C@H](CCc2ccc(C(F)(F)F)c(Cl)c2)NC(=O)CN(C)C(=O)[C@H](Cc2ccc(C(F)(F)F)cc2)N(C)C(=O)CN(C)C(=O)CN(C)C1=O [Compound 1884] ([NMeAbu]I[Sar][Sar][NMePhe(4-CF3)][Sar][hPhe(3-Cl-4-CF3)]P[Ac5c][NMeChg][NMeD]-Morpholide; lactam N-11) | 0.41 | 20 to 50 |
